# Test results from US20230363335A1, “STANDARDIZED AND VIRUS-FREE RAPID PROPAGATION METHOD OF DIANTHUS CARYOPHYLLUS” (Flower Research Institute, Yunnan Academy of Agricultural …, priority 2022, published 2023).
# Columns and labels:
# [1] = system: Dianthus caryophyllus shoot apex; assay: Virus-free culture, ribavirin combined with shoot apex peeling: regeneration of peeled shoot apex; type: in vivo; details: 3 mg/L to 5 mg/L ribavirin in medium, 30 d to 40 d; for Number of regenerated plant (s): 30 shoot apexes
# Excerpt: After the explant germinated and buds grew to 2 cm to 3 cm, the buds were cut and subjected to virus-free culture; three virus-free methods were used, and the most suitable virus-free method was selected for Dianthus caryophyllus. • (1) Directly shoot apex peeling method: the material was placed on an ultra-clean workbench, and tender leaves were peeled off with tweezers and a scalpel under the naked eye to expose a growth cone; a base of the bud was fixed with tweezers, and the shoot apex was continued to be peeled under a dissecting microscope at 25 to 50 times; when peeling to a growth point containing 1 to 2 pairs of leaf primordia, the shoot apex was picked on a medium with the tip of a knife. • (2) High-temperature treatment combined with shoot apex peeling method: the material was placed in a KBWF720 artificial climate box, and incubated for 30 d to 35 d at 38° C. ± 1° C. every day, with illumination for 14 h to 16 h at 1,200 Lux to 1,500 Lux, and then with darkness for 8 h to 10 h; and the shoot apex was continued to be peeled under a dissecting microscope at 25 to 50 times; when peeling to a growth point containing 1 to 2 pairs of leaf primordia, the shoot apex was picked on a medium with the tip of a knife. • (3) Ribavirin combined with shoot apex peeling method: the material was inoculated on a medium containing ribavirin for culture, namely MS+BA 0.5 mg/L to 1.5 mg/L+NAA 0.1 mg/L to 0.3 mg/L+3 mg/L to 5 mg/L ribavirin+A Agar 6.0 g/L, 3% sucrose, at a pH value of 5.8 to 6.0; after culturing for 30 d to 40 d, the shoot apex was peeled off.
# The peeled shoot apex was inoculated on a medium including MS+BA 0.5 mg/L to 1.0 mg/L+NAA 0.1 mg/L to 0.3 mg/L+A agar 6.0 g/L, 3% sucrose, at a pH value of 5.8 to 6.0; each shoot apex was cultured and numbered separately; the culture was conducted at 22±1° C. and an illumination intensity of 2,000 Lux to 4,000 Lux with an illumination time of 10 h/d to 12 h/d.
# [2] = system: Carnation mottle virus (CarMV) and Carnation necrotic fleck virus (CNFV); assay: Virus-free culture, ribavirin combined with shoot apex peeling: virus-free regenerated plants; type: in vivo, Dianthus caryophyllus; details: 3 mg/L to 5 mg/L ribavirin in medium, 30 d to 40 d; for Number of virus-free regenerated plant (s): 30 shoot apexes
# Protocol: Double-antibody sandwich ELISA included: 100 µL of an antibody diluted to a working concentration with a coating buffer was added to wells of a microtiter plate, the microtiter plate was placed in a wet box, and incubated in a refrigerator at 4° C. overnight, or incubated at room temperature (20° C. to 25° C.) for 4 h. The coating buffer was a 0.05 mol/L Na2CO3—NaHCO3 buffer, at a pH value of 9.6. Dianthus caryophyllus leaves and a grinding buffer were put in a disposable ziplock bag at a ratio of 1:10 (W/V), the bag was sealed tightly, and the sample was ground. The grinding buffer was obtained by: dissolving 2.0 g of a skim milk powder, 10.0 g of polyvinylpyrrolidone (PVP, MW24,000-40,000), 1.3 g of anhydrous sodium sulfite, 0.2 g of NaN3, and 10.0 g of Tween-20 in a washing buffer (PBST), diluting to 1,000 mL, and storing at 4° C. The washing buffer (PBST) was obtained by: dissolving 8.0 g of NaCl, 0.2 g of KH2PO4, 2.9 g of Na2HPO4·12H2O, 0.2 g of KCl, and 0.5 mL of Tween-20 in distilled water, diluting to 1,000 mL, and adjusting to a pH value of 7.4. After incubation, the microtiter plate was washed 4 to 6 times with the washing buffer. 400 µL of the PBST washing buffer was added to each well and held for 1 min to 2 min each time. 100 µL of a supernatant after grinding was added to each well, and each sample to be tested was repeated twice, and a negative control and a positive control were set at the same time. The microtiter plate was placed in a wet box, incubated in a refrigerator at 4° C. overnight or incubated at 21° C. to 24° C. for 2.5 h. The plate was washed. An enzyme-labeled antibody was prepared 10 min before coating, a dilution buffer of the specific enzyme-labeled antibody was diluted to a working concentration, and 100 µL was added to each well. The microtiter plate was placed in a wet box, incubated at 21° C. to 24° C. for 2.5 h. The plate was washed. The dilution buffer of the enzyme-labeled antibody was obtained by: dissolving 2.0 g of bovine serum albumin (BSA), 10.0 g of PVP (MW24,000-40,000), and 0.2 g of NaN3 in the PBST, diluting to 1,000 mL, and storing at 4° C. 100 µL of a substrate solution was added to each well. The substrate solution was prepared for immediate use by: dissolving 1 mg of PNPP in 1 mL of a substrate buffer, with a concentration of 1 mg/mL. The substrate buffer is obtained by: dissolving 97.0 mL of diethanolamine, 0.1 g of magnesium chloride, and 0.2 g of NaN3 in 800 mL of distilled water, adjusting to a pH value of 9.8 with 2 mol/L hydrochloric acid, diluting to 1000 mL, and storing at 4° C. The microtiter plate was placed in a wet box, to conduct color development at 21° C. to 24° C. for 30 min to 60 min in the dark. 50 µL of a stop solution was added to each well to stop the reaction. The stop solution was a sodium hydroxide solution of 3 mol/L. Within 20 min of stopping the reaction, the microtiter plate was placed in a microplate reader, an absorbance (OD405) was measured at 405 nm, and a reaction result was recorded. If an average OD value of the sample was greater than 2 times an OD value of the negative control, it was determined to be the CarMV.
# The indirect ELISA included: Dianthus caryophyllus leaves and an indirect sample extraction buffer were placed in a disposable ziplock bag at a ratio of 1:100 (W/V), the bag was sealed tightly, and the sample was ground. The sample extraction buffer was obtained by: dissolving 20.1 g of PVP (MW24,000-40,000), 0.2 g of NaN3, 3.0 g of NaHCO3, and 1.6 g of Na2CO3 in distilled water, diluting to […], and storing at 4° C. 100 µL of a supernatant after grinding was added to each well, and each sample to be tested was repeated twice, and a negative control and a positive control were set at the same time. The microtiter plate was placed in a wet box and incubated at room temperature for 1 h. After incubation, the microtiter plate was washed 8 times with the PBST washing buffer. […]
# [3] = growth point of peeled shoot apex 0.2 mm
# [4] = growth point of peeled shoot apex 0.4 mm
# [5] = growth point of peeled shoot apex 0.6 mm
# [6] = growth point of peeled shoot apex 0.8 mm
# [7] = growth point of peeled shoot apex 1.0 mm
smiles,measurement,setting,value
"NC(=O)c1ncn([C@@H]2O[C@H](CO)[C@@H](O)[C@H]2O)n1 [Ribavirin, ribavirin]",Regeneration rate (%),[1]; [3],53.33%
same,Number of regenerated plant (s),[1]; [3],16
same,Regeneration rate (%),[1]; [4],63.33%
same,Number of regenerated plant (s),[1]; [4],19
same,Regeneration rate (%),[1]; [5],73.33%
same,Number of regenerated plant (s),[1]; [5],22
same,Regeneration rate (%),[1]; [6],86.67%
same,Number of regenerated plant (s),[1]; [6],26
same,Regeneration rate (%),[1]; [7],96.67%
same,Number of regenerated plant (s),[1]; [7],29
same,Virus-free rate (%),[2]; [3],33.33%
same,Number of virus-free regenerated plant (s),[2]; [3],10
same,Virus-free rate (%),[2]; [4],30.00%
same,Number of virus-free regenerated plant (s),[2]; [4],9
same,Virus-free rate (%),[2]; [5],26.67%
same,Number of virus-free regenerated plant (s),[2]; [5],8
same,Virus-free rate (%),[2]; [6],20.00%
same,Number of virus-free regenerated plant (s),[2]; [6],6
same,Virus-free rate (%),[2]; [7],10.00%
same,Number of virus-free regenerated plant (s),[2]; [7],3
